From US12037333B2, “Pyridopyrazine and pyridotriazine inhibitors of influenza virus replication” (priority 2018, dated 2024) come the findings set out here.

The first assay concerns Influenza type A (strain A/PR/8/34, ATCC VR-95). As to the kind of experiment: Influenza antiviral assay: inhibition of virus-induced cytopathic effects (CPE) in MDCK cells, XTT dye reduction. Type of assay: cell-based. Conditions: Influenza A (H1N1), strain A/PR/8/34, MDCK cells, CPE inhibition at 4 days. Background: Protection from cytopathic effect is a common read-out in antiviral testing.
Consider `CC(CCN1CN(C23c4ccccc4CC2Cc2ccccc23)n2ccc(=O)c(O)c2C1=O)c1ccccc1` (stereo not drawn) [Compound A33], for which the EC50 – broadly, the concentration that produces a half-maximal response – was 375 to 500 nM. The same measure, in the same setting: the same measure for `CN1CN(C23c4ccccc4CC2Cc2c3ccc(F)c2Cl)n2ccc(=O)c(O)c2C1=O` (stereo not drawn) [Compound A90]: 125 to 250 nM.

Still in this assay, the particulars now being: Influenza A virus, H1N1 / PR/8, MDCK, 96 h, strain A/PR/8/34, MDCK cells, CPE inhibition at 4 days.
For `O=C1c2c(O)c(=O)ccn2N(C23c4ccccc4CC2Cc2ccccc23)CN1Cc1cccc(Cl)c1F` (stereo not drawn) [Compound A31, 3-(3-chloro-2-fluorobenzyl)-1-(9a,10-dihydroindeno[1,2-a]inden-4b(9H)-yl)-5-hydroxy-2,3-dihydro-1H-pyrido[2,1-f][1,2,4]triazine-4,6-dione], the EC50 was > 500 nM.

For the compound `CC(CCN1CN(C23c4ccccc4CC2Cc2ccccc23)n2ccc(=O)c(O)c2C1=O)c1ccccc1` (stereo not drawn) [Compound A32, 1-(9a,10-dihydroindeno[1,2-a]inden-4b(9H)-yl)-5-hydroxy-3-(3-phenylbutyl)-2,3-dihydro-1H-pyrido[2,1-f][1,2,4]triazine-4,6-dione], the half-maximal effective concentration (EC50) was > 500 nM.

Take `CCN1CN(C23c4cccc(F)c4CC2Cc2c(F)cccc23)n2ccc(=O)c(O)c2C1=O` (stereo not drawn) [Compound A34]: the EC50 was < 125 nM. Still for that read-out and setting: the value for `CN1CN(C23c4ccccc4CC2Cc2c3ccc(F)c2Cl)n2ccc(=O)c(O)c2C1=O` (stereo not drawn) [Compound A46, 1-(1-Chloro-2-fluoro-9a,10-dihydroindeno[1,2-a]inden-4b(9H)-yl)-5-hydroxy-3-methyl-2,3-dihydro-1H-pyrido[2,1-f][1,2,4]triazine-4,6-dione] was < 125 nM; that for `CCN1CN(C23c4ccccc4CC2Cc2c3ccc(F)c2Cl)n2ccc(=O)c(O)c2C1=O` (stereo not drawn) [Compound A47] was < 125 nM. With `CCOC12Cc3ccccc3C1(N1CN(CC)C(=O)c3c(O)c(=O)ccn31)c1ccccc1C2` (stereo not drawn) [Compound A48, 1-(9a-Ethoxy-9a,10-dihydroindeno[1,2-a]inden-4b(9H)-yl)-3-ethyl-5-hydroxy-2,3-dihydro-1H-pyrido[2,1-f][1,2,4]triazine-4,6-dione], the EC50 is < 125 nM. On the same count and under the same terms, the same measure for `COCCN1CN(C23c4cccc(F)c4CC2Cc2c(F)cccc23)n2ccc(=O)c(O)c2C1=O` (stereo not drawn) [Compound A49]: < 125 nM. Same read-out and setting: the same measure for `CC(C)N1CN(C23c4ccccc4CC2(C)Cc2ccccc23)n2ccc(=O)c(O)c2C1=O` (stereo not drawn) [Compound A50, 5-hydroxy-3-isopropyl-1-(9a-methyl-9a,10-dihydroindeno[1,2-a]inden-4b(9H)-yl)-2,3-dihydro-1H-pyrido[2,1-f] [1,2,4] triazine-4,6-dione]: < 125 nM.

Regarding `CCN1CN(C23c4cccc(F)c4CC2(C)Cc2c(F)cccc23)n2ccc(=O)c(O)c2C1=O` (stereo not drawn) [Compound A51], the half-maximal effective concentration (EC50) was < 125 nM. Take `CCN1CN(C23c4ccccc4CC2Cc2ccc(F)cc23)n2ccc(=O)c(O)c2C1=O` (stereo not drawn) [Compound A52]: the concentration for a half-maximal effect (EC50) was < 125 nM.

With `CN1CN(C23c4ccccc4CC2Cc2ccc(F)cc23)n2ccc(=O)c(O)c2C1=O` (stereo not drawn) [Compound A53], the EC50 is < 125 nM.

For the compound `CN1CN(C23c4cccc(F)c4CC2(C)Cc2c(F)cccc23)n2ccc(=O)c(O)c2C1=O` (stereo not drawn) [Compound A54], the EC50 is < 125 nM. On the same count and under the same terms, the same measure for `CCN1CN(C23c4ccccc4CC2Cc2c(Cl)cccc23)n2ccc(=O)c(O)c2C1=O` (stereo not drawn) [Compound A55]: < 125 nM; for `CCN1CN(C23c4ccccc4CC2(CC)Cc2c3ccc(F)c2F)n2ccc(=O)c(O)c2C1=O` (stereo not drawn) [Compound A56]: < 125 nM; for `CCOC12Cc3ccccc3C1(N1CN(C)C(=O)c3c(O)c(=O)ccn31)c1ccccc1C2` (stereo not drawn) [Compound A57]: < 125 nM. On the same count and under the same terms, the value for `O=C1c2c(O)c(=O)ccn2N(C23c4cccc(F)c4CC2Cc2c(F)cccc23)CN1CCF` (stereo not drawn) [Compound A58] was < 125 nM; that for `CN1C(=O)c2c(O)c(=O)ccn2N(C23c4cccc(F)c4CC2Cc2c(F)cccc23)C1CO` (stereo not drawn) [Compound A59] was < 125 nM.

In the case of `CC1N(C)C(=O)c2c(O)c(=O)ccn2N1C12c3ccccc3CC1Cc1c(F)cccc12` (stereo not drawn) [Compound A60], the 50% effective concentration (EC50) is < 125 nM. Same read-out and setting: the same measure for `O=C1c2c(O)c(=O)ccn2N(C23c4ccccc4CC2Cc2c3ccc(F)c2F)CN1C1CC1` (stereo not drawn) [Compound A61]: < 125 nM. The same measure, in the same setting: the value for `COC12Cc3ccccc3C1(N1CN(C)C(=O)c3c(O)c(=O)ccn31)c1ccccc1C2` (stereo not drawn) [Compound A62] was 125 to 250 nM; that for `CN1CN(C23c4ccccc4CC2(C(F)F)Cc2ccccc23)n2ccc(=O)c(O)c2C1=O` (stereo not drawn) [Compound A63] was 125 to 250 nM. Consider `CC1N(C)C(=O)c2c(O)c(=O)ccn2N1C12c3ccccc3CC1Cc1c2ccc(F)c1F` (stereo not drawn) [Compound A64], for which the 50% effective concentration (EC50) was < 125 nM. On the same count and under the same terms, the same measure for `O=C1c2c(O)c(=O)ccn2N(C23c4ccccc4CC2Cc2c(F)cccc23)CN1C1CC1` (stereo not drawn) [Compound A65]: 125 to 250 nM; for `CCN1CN(C23c4cccc(C)c4CC2Cc2c(F)cccc23)n2ccc(=O)c(O)c2C1=O` (stereo not drawn) [Compound A66]: 125 to 250 nM. Still for that read-out and setting: the value for `Cc1cccc2c1CC1Cc3c(F)cccc3C21N1CN(C)C(=O)c2c(O)c(=O)ccn21` (stereo not drawn) [Compound A67] was < 125 nM; that for `O=C1c2c(O)c(=O)ccn2N(C23c4ccccc4CC2Cc2c(F)cccc23)CN1CCF` (stereo not drawn) [Compound A68] was < 125 nM. Still for that read-out and setting: the value for `COCCN1CN(C23c4ccccc4CC2Cc2c(F)cccc23)n2ccc(=O)c(O)c2C1=O` (stereo not drawn) [Compound A69] was < 125 nM. For the compound `COCCN1CN(C23c4ccccc4CC2Cc2c3ccc(F)c2F)n2ccc(=O)c(O)c2C1=O` (stereo not drawn) [Compound A70], the concentration for a half-maximal effect (EC50) was < 125 nM. Still for that read-out and setting: the same measure for `O=C1c2c(O)c(=O)ccn2N(C23c4cccc(F)c4CC2Cc2c(F)cccc23)CN1CC(F)F` (stereo not drawn) [Compound A71]: < 125 nM; for `O=C1c2c(O)c(=O)ccn2N(C23c4cccc(F)c4CC2Cc2c(F)cccc23)CN1CCCF` (stereo not drawn) [Compound A72]: < 125 nM; for `CC1N(C)C(=O)c2c(O)c(=O)ccn2N1C12c3cccc(F)c3CC1Cc1c(F)cccc12` (stereo not drawn) [Compound A73]: < 125 nM. On the same count and under the same terms, the same measure for `O=C1c2c(O)c(=O)ccn2N(C23c4ccccc4CC2Cc2c3ccc(F)c2F)CN1CCF` (stereo not drawn) [Compound A74]: 125 to 250 nM; for `O=C1c2c(O)c(=O)ccn2N(C23c4ccccc4CC2Cc2c(F)cccc23)CN1CC1CCOCC1` (stereo not drawn) [Compound A75]: < 125 nM; for `O=C1c2c(O)c(=O)ccn2N(C23c4cccc(F)c4CC2Cc2c(F)cccc23)CN1CC1CC1` (stereo not drawn) [Compound A76]: < 125 nM. With `CCN1CN(C23c4ccccc4CC2Cc2c3ccc(F)c2C)n2ccc(=O)c(O)c2C1=O` (stereo not drawn) [Compound A77], the EC50 was < 125 nM. Same read-out and setting: the same measure for `Cc1c(F)ccc2c1CC1Cc3ccccc3C21N1CN(C)C(=O)c2c(O)c(=O)ccn21` (stereo not drawn) [Compound A78]: < 125 nM. For `O=C1c2c(O)c(=O)ccn2N(C23c4ccccc4CC2Cc2c(F)cccc23)CN1CCCF` (stereo not drawn) [Compound A79], the EC50 is < 125 nM. On to `O=C1c2c(O)c(=O)ccn2N(C23c4ccccc4CC2Cc2c3ccc(F)c2F)CN1CCCF` (stereo not drawn) [Compound A80], for which the half-maximal effective concentration (EC50) is < 125 nM. Still for that read-out and setting: the value for `O=C1c2c(O)c(=O)ccn2N(C23c4cccc(F)c4CC2Cc2c(F)cccc23)CN1CC1CCOCC1` (stereo not drawn) [Compound A81] was 125 to 250 nM. On the same count and under the same terms, the value for `CCN1CN(C23c4ccccc4CC2Cc2c(C)cccc23)n2ccc(=O)c(O)c2C1=O` (stereo not drawn) [Compound A82] was < 125 nM; that for `O=C1c2c(O)c(=O)ccn2N(C23c4ccccc4CC2Cc2c(F)cccc23)CN1CC(F)F` (stereo not drawn) [Compound A83] was < 125 nM; that for `O=C1c2c(O)c(=O)ccn2N(C23c4ccccc4CC2Cc2c3ccc(F)c2F)CN1CC(F)F` (stereo not drawn) [Compound A84] was < 125 nM. As for `Cc1ccc2c(c1F)CC1Cc3ccccc3C21N1CN(C)C(=O)c2c(O)c(=O)ccn21` (stereo not drawn) [Compound A85], the EC50 lay within 125 to 250 nM. Still for that read-out and setting: the same measure for `O=C1c2c(O)c(=O)ccn2N(C23c4cccc(F)c4CC2Cc2c(F)cccc23)CN1CCc1ccccc1` (stereo not drawn) [Compound A86]: 125 to 250 nM. On to `O=C1c2c(O)c(=O)ccn2N(C23c4ccccc4CC2Cc2c(F)cccc23)CN1CCc1ccccc1` (stereo not drawn) [Compound A87], for which the EC50 was in the range of 125 to 250 nM. In the case of `CC(C)N1CN(C23c4cccc(F)c4CC2(C)Cc2c(F)cccc23)n2ccc(=O)c(O)c2C1=O` (stereo not drawn) [Compound A89], the EC50 is 125 to 250 nM.

As to `CC(CCN1CN(C23c4ccccc4CC2Cc2c3ccc(F)c2F)n2ccc(=O)c(O)c2C1=O)c1ccccc1` (stereo not drawn) [Compound A91], the EC50 is > 500 nM.

In the case of `O=C1c2c(O)c(=O)ccn2N(C23c4ccccc4CC2Cc2c3ccc(F)c2F)CN1C1CCC1` (stereo not drawn) [Compound A92, 3-Cyclobutyl-1-(1,2-difluoro-9a,10-dihydroindeno[1,2-a]inden-4b(9H)-yl)-5-hydroxy-2,3-dihydro-1H-pyrido[2,1-f][1,2,4]triazine-4,6-dione], the EC50 was in the range of 250 to 375 nM. Take `O=C1c2c(O)c(=O)ccn2N(C23c4ccccc4CC2Cc2c(Cl)cccc23)CN1C1CC1` (stereo not drawn) [Compound A93]: the 50% effective concentration (EC50) was 125 to 250 nM. As for `CC1N(C)C(=O)c2c(O)c(=O)ccn2N1C12c3ccccc3CC1Cc1c(Cl)cccc12` (stereo not drawn) [Compound A94], the concentration giving a half-maximal response (EC50) lay in the range of 250 to 375 nM. The same measure, in the same setting: the same measure for `CCN1C(=O)c2c(O)c(=O)ccn2N(C23c4ccccc4CC2Cc2c(Cl)cccc23)C1C` (stereo not drawn) [Compound A95]: 125 to 250 nM; for `CN1CN(C23c4cc(F)ccc4CC2Cc2c(Cl)cccc23)n2ccc(=O)c(O)c2C1=O` (stereo not drawn) [Compound A96]: < 125 nM; for `CCN1CN(C23c4ccccc4CC2Cc2c3ccc(C)c2F)n2ccc(=O)c(O)c2C1=O` (stereo not drawn) [Compound A98]: 250 to 375 nM. In the case of `O=C1c2c(O)c(=O)ccn2N(C23c4ccccc4CC2Cc2c3ccc(F)c2F)CN1CC1CCCCC1` (stereo not drawn) [Compound A99], the concentration for a half-maximal effect (EC50) is > 500 nM.

Regarding `O=C1c2c(O)c(=O)ccn2N(C23c4ccccc4CC2Cc2c3ccc(F)c2F)CN1CC1CCCC1` (stereo not drawn) [Compound A100], the 50% effective concentration (EC50) was > 500 nM. Same read-out and setting: the value for `COCCN1CN(C23c4ccccc4CC2Cc2c(Cl)cccc23)n2ccc(=O)c(O)c2C1=O` (stereo not drawn) [Compound A101] was 125 to 250 nM. On the same count and under the same terms, the value for `O=C1c2c(O)c(=O)ccn2N(C23c4ccccc4CC2Cc2c(Cl)cccc23)CN1CCCF` (stereo not drawn) [Compound A102] was 125 to 250 nM; that for `O=C1c2c(O)c(=O)ccn2N(C23c4ccccc4CC2Cc2c(Cl)cccc23)CN1C1CCC1` (stereo not drawn) [Compound A103] was 250 to 375 nM.
